Laboratory results as given in US20180085362A1, “COMBINATION OF PHOSPHATIDYLINOSITOL-3-KINASE (PI3K) INHIBITOR AND A MTOR INHIBITOR” (Novartis AG, priority 2011, published 2018).

Experiments:
[1] = system: ZR-75-1 human breast cancer cell line; test: CellTiter-Glo cell proliferation assay, dose matrix, ZR-75-1; assay type: cell-based; details: for Amax (maximum fraction of inhibition): ZR-75-1, 72 hrs, fraction growth inhibition compare to DMSO control, everolimus 1 nM-27 nM, Compound I 4 nM-3 μM
[2] = system: SKBR-3 human breast cancer cell line; test: CellTiter-Glo cell proliferation assay, dose matrix, SKBR-3; assay type: cell-based; details: SKBR-3, 72 hrs; for Amax, the maximum fraction of inhibition: fraction growth inhibition compare to DMSO control, everolimus 1 nM-27 nM, Compound I 4 nM-3 μM
Method: The human breast cancer cell line SKBR-3 is purchased from American Type Cell Collection. The SKBR-3 human breast cancer cell line is HER2 amplified.
Single agent dose responding curves, IC50, IC90, and the Synergy are all analyzed using Chalice software (CombinatoRx, Cambridge Mass.). Synergy is calculated by comparing a combination's response to those of its single agents, against the drug-with-itself dose-additive reference model. Deviations from dose additivity can be assessed visually on an Isobologram or numerically with a Combination Index. Excess inhibition compare to additivity can also be plotted as a full dose-matrix chart to capture where the synergies occur. To quantify the overall strength of combination effects, a volume score VHSA=ΣX,Y, InfX InfY (Idata−IHSA) is also calculated between the data and the highest-single-agent surface, normalized for single agent dilution factors fX,fY.
The cells are plated at 3000 cells per well in 384 well plates in triplicates, and treated with compound for 72 hrs before the measurement (FIG. 13).

[3] = system: BT-474 human breast cancer cell line; test: CellTiter-Glo cell proliferation assay, dose matrix, BT-474; assay type: cell-based; details: BT-474, 72 hrs; for Amax (maximum fraction of inhibition): fraction growth inhibition compare to DMSO control, everolimus 1 nM-27 nM, Compound I 4 nM-3 μM
Method: (§1) Cell viability is determined by measuring cellular ATP content using the CellTiter-Glo® Luminescent Cell Viability Assay (Promega #G7573) according to manufacturer's protocol.
(§2) Single agent dose responding curves, IC50, IC90, and the Synergy are all analyzed using Chalice software (CombinatoRx, Cambridge Mass.). Synergy is calculated by comparing a combination's response to those of its single agents, against the drug-with-itself dose-additive reference model. Deviations from dose additivity can be assessed visually on an Isobologram or numerically with a Combination Index. Excess inhibition compare to additivity can also be plotted as a full dose-matrix chart to capture where the synergies occur. To quantify the overall strength of combination effects, a volume score VHSA=ΣX,Y InfX InfY (Idata−IHSA) is also calculated between the data and the highest-single-agent surface, normalized for single agent dilution factors fX,fY.
The experiment setup is identical to the experiment procedure described above for the SKBR-3 model (FIG. 14).

[4] = Toxicity (body weight, deaths) in DU145 xenograft study; assay type: in vivo, nude mice (nu/nu); set-up: key to Mean BW Nadir: — indicates no decrease in mean body weight is observed; details: for Deaths (TR/NTR): ten mice
Method: Paclitaxel is administered via bolus tail veil injections (i.v.) once daily on alternate days for five doses (qod×5). The dosing volume, 10 mL/kg ( )0.2 mL/20 g mouse), is scaled to the weight to each animal as determined on the day of dosing, except on weekends, when the Friday BWs are carried forward.
11 groups of nude mice (n=10 per group) are treated as follows: Group 1 mice receives Vehicle 1 and Vehicle 2, and served as controls for all analyses. […] Groups 5-7 receives monotherapies with 2.5, 5, and 10 mg/kg RAD001, respectively. […] Group 11 receives 25 mg/kg paclitaxel.
Animals are weighed on Days 1-5, and on each treatment day (except weekend days) until the end of the study. Acceptable toxicity for the maximum tolerated dose is defined as a group mean BW loss of less than 15% during the test, and not more than one treatment-related (TR) death among ten animals. Any animal with BW losses exceeding 20% for one measurement, is to be euthanized and classified as a TR death, unless it is the first death in the group. Non-treatment-related (NTR) deaths are to be categorized as NTRa (due to accident or error), NTRu (due to unknown causes), or NTRm (necropsy-confirmed tumor dissemination by invasion and/or metastasis).

[5] = system: T47-D human breast cancer cell line; test: CellTiter-Glo cell proliferation assay, dose matrix, T47-D; assay type: cell-based; details: 72 hrs; for Amax (maximum fraction of inhibition): fraction growth inhibition compare to DMSO control, everolimus 1 nM-27 nM, Compound I 4 nM-3 μM
Method: The human breast cancer cell line T47-D is purchased from American Type Cell Collection. The T47-D human breast cancer cell line includes PIK3CA mutation.
as §1, §2
The experiment setup is identical to the experiment procedure described above for the SKBR-3 model (FIG. 15).

[6] = system: DU145 human prostate carcinoma; test: Tumor growth inhibition, DU145 human prostate carcinoma nude mouse xenograft model; details: for Mean volume Change: Day 1 to Day 21; for T/C: Day 21
[7] = single agent, read-out: IC50 (cell growth)
[8] = Group 2: Compound I 12.5 mg/kg p.o. qd×21
[9] = Group 3: Compound I 25 mg/kg p.o. qd×21
[10] = Group 4: Compound I 50 mg/kg p.o. qd×21
[11] = Group 11: Paclitaxel 25 mg/kg i.v. qod×5
[12] = Group 5: RAD001 2.5 mg/kg p.o. qd×21
[13] = Group 6: RAD001 5 mg/kg p.o. qd×21
[14] = Group 7: RAD001 10 mg/kg p.o. qd×21

In the case of Cc1nc(NC(=O)N2CCC[C@H]2C(N)=O)sc1-c1ccnc(C(C)(C)C(F)(F)F)c1 [Compound I, (S)-Pyrrolidine-1,2-dicarboxylic acid 2-amide 1-({4-methyl-5-[2-(2,2,2-trifluoro-1,1-dimethyl-ethyl)-pyridin-4-yl]-thiazol-2-yl}-amide)], the “Amax (maximum fraction of inhibition)” value [1] is reported as “around 0.16”, the “Amax, the maximum fraction of inhibition” value [2] is reported as 0.40 and the “Amax (maximum fraction of inhibition)” value [3] is reported as “around 0.53”. For the same compound, the IC50 [3, 7] was roughly 3 µM, the “Mean BW Nadir” value [4, 8] was “—” and the “Deaths (TR/NTR)” value [4, 8] was 0/0. The “Mean BW Nadir” value [4, 9] was “—”, the “Deaths (TR/NTR)” value [4, 9] was 0/0 and the “Mean BW Nadir” value ([4]; Group 4: Compound I 50 mg/kg p.o. qd×21, % change from Day 1, nadir Day 8) was −8.1%. The “Deaths (TR/NTR)” value [4, 10] was 3/0, the “Amax (maximum fraction of inhibition)” value [5] was “around 0.67” and the IC50 [5, 7] was roughly 0.33 µM. For the same compound, the “Mean volume Change” value [6, 8] was 501 mm^3, the T/C [6, 8] was “(T/C = 64%)” and the “Statistical Signif. vs. G1” value ([6]; Group 2: Compound I 12.5 mg/kg, Kruskal-Wallis with Dunn's test) was “ns (vs. G1)”. For the same compound, the “Mean volume Change” value [6, 9] was 129 mm^3, the “Statistical Signif. vs. G1” value ([6]; Group 3: Compound I 25 mg/kg, Kruskal-Wallis with Dunn's test) was “*** (vs. G1) (*** = P < 0.001)” and the “Mean volume Change” value [6, 10] was 150 mm^3. For the same compound, the T/C [6, 10] was “(T/C = 19%)”.
In the case of CC(=O)O[C@H]1C(=O)[C@@]2(C)[C@H]([C@H](OC(=O)c3ccccc3)[C@]3(O)C[C@H](OC(=O)[C@H](O)[C@@H](NC(=O)c4ccccc4)c4ccccc4)C(C)=C1C3(C)C)[C@]1(OC(C)=O)CO[C@@H]1C[C@@H]2O [Paclitaxel], the “Mean BW Nadir” value ([4]; Group 11: Paclitaxel 25 mg/kg i.v. qod×5, % change from Day 1, nadir Day 12) is reported as −1.9%, the “Deaths (TR/NTR)” value [4, 11] is reported as 0/1 and the “Mean volume Change” value [6, 11] is reported as 898 mm^3. The T/C [6, 11] was “(TIC = 115%)” and the “Statistical Signif. vs. G1” value ([6]; Group 11: Paclitaxel 25 mg/kg, Mann-Witney U test) was “ns (using”.
With CO[C@H]1C[C@@H]2CC[C@@H](C)[C@@](O)(O2)C(=O)C(=O)N2CCCC[C@H]2C(=O)O[C@H]([C@H](C)C[C@@H]2CC[C@@H](OCCO)[C@H](OC)C2)CC(=O)[C@H](C)/C=C(\C)[C@@H](O)[C@@H](OC)C(=O)[C@H](C)C[C@H](C)/C=C/C=C/C=C/1C [everolimus (RAD001), (1R,9S,12S,15R,16E,18R,19R, 21R,23S,24E,26E,28E,30S,32S,35R)-1,18-dihydroxy-12-{(1R)-2-[(1 S,3R,4R)-4-(2-hydroxyethoxy)-3-methoxycyclohexyl]-1-methylethyl}-19,30-dimethoxy-15,17,21,23,29,35-hexamethyl-11,36-dioxa-4-aza-tricyclo[30.3.1.04,9] hexatriaconta-16,24, 26,28-tetraene-2,3,10,14,20-pentaone] the IC50 ([1]; Homo sapiens, ZR-75-1, 72 h, read-out: IC50 (cell proliferation)) was roughly 0.015 µM, the “Amax (maximum fraction of inhibition)” value [1] was 0.55 and the “Amax, the maximum fraction of inhibition” value [2] was 0.32. For the same compound, the “IC50 (cell proliferation)” value ([2]; single agent, 1 nM-27 nM) was “never achieved an IC50”, the “Amax (maximum fraction of inhibition)” value [3] was 0.36 and the “IC50 (cell growth)” value ([3]; single agent) was “never achieves an IC50”. The “Mean BW Nadir” value [4, 12] was “—”, the “Deaths (TR/NTR)” value [4, 12] was 0/0 and the “Mean BW Nadir” value [4, 13] was “—”. For the same compound, the “Deaths (TR/NTR)” value [4, 13] was 0/0, the “Mean BW Nadir” value [4, 14] was “—” and the “Deaths (TR/NTR)” value [4, 14] was 0/0. For the same compound, the “Amax (maximum fraction of inhibition)” value [5] was 0.37, the “IC50 (cell growth)” value ([5]; single agent) was “never achieved an IC50” and the “Mean volume Change” value [6, 12] was 424 mm^3. For the same compound, the T/C [6, 12] was “(T/C = 54%)”, the “Statistical Signif. vs. G1” value ([6]; Group 5: RAD001 2.5 mg/kg, Kruskal-Wallis with Dunn's test) was “ns (vs. G1)” and the “Mean volume Change” value [6, 13] was 269 mm^3. For the same compound, the T/C [6, 13] was “(T/C = 43%)”, the “Statistical Signif. vs. G1” value ([6]; Group 6: RAD001 5 mg/kg, Kruskal-Wallis with Dunn's test) was “* (vs. G1) (* = P < 0.05)” and the “Mean volume Change” value [6, 14] was 341 mm^3. The T/C [6, 14] was “(T/C = 43%)” and the “Statistical Signif. vs. G1” value ([6]; Group 7: RAD001 10 mg/kg, Kruskal-Wallis with Dunn's test) was “ns (vs. G1)”.
